This assay concerns the target T1, human mAChR M4 (Homo sapiens, UniProt P08173).
T1 construct: expressed in transfected cells; host or cells: CHO-K1 (ATCC), stably expressing hM4 and Gqi5
T1 sequence (P08173 1-479): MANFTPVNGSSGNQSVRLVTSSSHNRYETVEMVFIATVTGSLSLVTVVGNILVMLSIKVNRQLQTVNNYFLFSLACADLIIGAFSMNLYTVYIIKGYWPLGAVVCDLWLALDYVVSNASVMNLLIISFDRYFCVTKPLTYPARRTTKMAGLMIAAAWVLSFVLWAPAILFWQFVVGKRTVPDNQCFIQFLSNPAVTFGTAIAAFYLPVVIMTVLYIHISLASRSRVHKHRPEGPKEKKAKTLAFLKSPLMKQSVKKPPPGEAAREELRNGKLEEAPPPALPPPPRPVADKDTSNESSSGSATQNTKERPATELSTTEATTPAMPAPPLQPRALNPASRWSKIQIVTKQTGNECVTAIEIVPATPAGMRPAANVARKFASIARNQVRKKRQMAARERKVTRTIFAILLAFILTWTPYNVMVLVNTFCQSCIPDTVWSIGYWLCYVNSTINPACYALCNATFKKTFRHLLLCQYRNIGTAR
The assay can be described thus: mAChR M4 cell-based functional assay: calcium flux (Fluo-4, FDSS), positive allosteric modulator activity on the EC20 acetylcholine response, hM4-Gqi5 CHO-K1 cells. The conditions noted are these: for Emax at 30 µM: CHO-K1, human M4, % ACh maximum at 30 μM; for EC50: human M4, PAM activity on EC20 acetylcholine response, calcium flux, read-out: Human M4 EC50. In a few lines:
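Potentiation was taken as the concentration-dependent rise in the EC20 acetylcholine calcium response, fitted by a four-parameter logistic with EC20 as baseline. Fluo-4-loaded hM4-Gqi5 CHO-K1 cells received 11-point, threefold-diluted compound before acetylcholine at 144 s; FDSS read at 1 Hz.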
Background: Calcium assays in cells follow changes in intracellular calcium, usually with a dye or a luminescent sensor.

As usually defined, the Emax is the greatest response seen or fitted, relative to the assay's reference. A word on the EC50: it is the concentration at which the effect is half-maximal. With `Cc1ccc2c(N3CCc4ncc(C(F)(F)F)cc4C3)nc(C)nc2c1` [Compound 124, 2,7-dimethyl-4-[3-(trifluoromethyl)-7,8-dihydro-5H-1,6-naphthyridin-6-yl]quinazoline], the Emax at 30 µM is 43% and the EC50 was 950 nM.

For the compound `Cn1cc(-c2cnc3c(c2)CN(c2ncnc4ccc(F)cc24)CC3)cn1` [Compound 15, 6-fluoro-4-[3-(1-methylpyrazol-4-yl)-7,8-dihydro-5H-1,6-naphthyridin-6-yl]quinazoline], the maximum response (Emax) at 30 µM came to 105% and the EC50 was 40 nM.

As to `Cc1cnn(C)c1-c1cnc2c(c1)CN(c1ncnc3ccc(F)cc13)CC2` [Compound 266, 4-(3-(1,4-dimethyl-1H-pyrazol-5-yl)-7,8-dihydro-1,6-naphthyridin-6(5H)-yl)-6-fluoroquinazoline], the maximal effect (Emax) at 30 µM stood at 90% and the EC50 amounted to 60 nM.

On to `Fc1cc2c(N3CCc4ncc(N5CCCn6nccc65)cc4C3)nc(Cl)nc2cc1Cl` [Compound 109, 2,7-dichloro-4-[3-(6,7-dihydro-5H-pyrazolo[1,5-a]pyrimidin-4-yl)-7,8-dihydro-5H-1,6-naphthyridin-6-yl]-6-fluoro-quinazoline], for which the Emax at 30 µM worked out at 80% and the EC50 is 460 nM.

For `Cc1ccc(-c2cnc3c(c2)CN(c2nc(C)nc4ccc(C(F)(F)F)cc24)CC3)cn1` [Compound 58, 2-methyl-4-[3-(6-methyl-3-pyridyl)-7,8-dihydro-5H-1,6-naphthyridin-6-yl]-6-(trifluoromethyl)quinazoline], the Emax at 30 µM was 45% and the EC50 turned out to be 1220 nM.

In the case of `COc1cc2c(N3CCc4ncc(-c5cn(C)nc5C)cc4C3)nc(Cl)nc2cc1F` [Compound 60, 2-chloro-4-[3-(1,3-dimethylpyrazol-4-yl)-7,8-dihydro-5H-1,6-naphthyridin-6-yl]-7-fluoro-6-methoxy-quinazoline], the Emax at 30 µM is 52% and the EC50 came to 510 nM.

Take `c1cnc2nc(N3CCCC3)nc(N3CCc4ncc(N5CCCn6nccc65)cc4C3)c2c1` [Compound 246, 4-(3-(6,7-dihydropyrazolo[1,5-a]pyrimidin-4(5H)-yl)-7,8-dihydro-1,6-naphthyridin-6(5H)-yl)-2-(pyrrolidin-1-yl)pyrido[2,3-d]pyrimidine]: the Emax at 30 µM came out at 63% and the EC50 was determined as 50 nM.

On to `Cc1ccc2nc(C)nc(N3CCc4ncc(-c5ccccc5C)cc4C3)c2c1` [Compound 316, 2,6-dimethyl-4-(3-(o-tolyl)-7,8-dihydro-1,6-naphthyridin-6(5H)-yl)quinazoline], for which the Emax at 30 µM was determined as 93% and the EC50 is 1600 nM.

For `Fc1ccc2nc(NC3CCOC3)nc(N3CCc4ncc(C(F)(F)F)cc4C3)c2c1` (stereo not drawn) [Compound 202, 6-fluoro-N-tetrahydrofuran-3-yl-4-[3-(trifluoromethyl)-7,8-dihydro-5H-1,6-naphthyridin-6-yl]quinazolin-2-amine], the Emax at 30 µM turned out to be 92% and the EC50 turned out to be 300 nM.

Regarding `COc1ccc2nc(C)nc(N3CCc4ncc(-c5cc(F)ccc5C)cc4C3)c2c1` [Compound 313, 4-(3-(5-fluoro-2-methylphenyl)-7,8-dihydro-1,6-naphthyridin-6(5H)-yl)-6-methoxy-2-methylquinazoline], the maximal effect (Emax) at 30 µM was 52% and the EC50 is 4360 nM.

Take `COc1ccc2ncnc(N3CCc4ncc(Nc5ccnn5C)cc4C3)c2c1` [Compound 80, 6-(6-methoxyquinazolin-4-yl)-N-(2-methylpyrazol-3-yl)-7,8-dihydro-5H-1,6-naphthyridin-3-amine]: the Emax at 30 µM was 98% and the EC50 was found to be 500 nM.

With `[2H]c1nc2c(cc1N1CCOC(C)(C)C1)CN(c1ncnc3ccc(F)cc13)CC2` [Compound 228, 4-(6-(6-fluoroquinazolin-4-yl)-5,6,7,8-tetrahydro-1,6-naphthyridin-3-yl-2-d)-2,2-dimethylmorpholine], the maximal response (Emax) at 30 µM was determined as 97% and the EC50 was found to be 40 nM.

These data come from patent publication US20250026752A1, “POSITIVE ALLOSTERIC MODULATORS OF THE MUSCARINIC ACETYLCHOLINE RECEPTOR M4” (Vanderbilt University, priority 2021, published 2025).
